According to ChEMBL document CHEMBL3832761, “MMV Pathogen Box Bioactivity Data” (2017):
≈ marks a conversion by molar mass, not a printed value.

What was measured:
[1] = test system: Mycobacterium tuberculosis; test: AntiMycobacterium tuberculosis activity 2-week Alamar Blue 7H9/cholesterol/BSA/Tx MIC (uM); type: functional; conditions: 336 h
[2] = test system: Mycobacterium tuberculosis; test: AntiMycobacterium tuberculosis activity 2-week Alamar Blue 7H9/ADC/Tw MIC (uM); type: functional; conditions: 336 h
[3] = test system: Mycobacterium tuberculosis; test: AntiMycobacterium tuberculosis activity 2-week 7H9/glucose/BSA/Tx MIC (uM); type: functional; conditions: 336 h
[4] = test system: Mycobacterium tuberculosis; test: AntiMycobacterium tuberculosis activity 1-week 7H9/DPPC/cholesterol/BSA/Tx MIC (uM); type: functional; conditions: 168 h
[5] = test system: Mycobacterium tuberculosis; test: AntiMycobacterium tuberculosis activity 2-week 7H9/ADC/Tw MIC (uM); type: functional; conditions: 336 h
[6] = test system: Mycobacterium tuberculosis; test: AntiMycobacterium tuberculosis activity 1-week GAST/Fe MIC (uM); type: functional; conditions: 168 h
[7] = test system: Mycobacterium tuberculosis; test: AntiMycobacterium tuberculosis activity day 21 in 7H9/2.5mM butyrate/pH6/0.1mM nitrite MIC90 (uM); type: functional; conditions: 504 h
[8] = test system: Mycobacterium tuberculosis; test: AntiMycobacterium tuberculosis activity 2-week 7H9/DPPC/cholesterol/BSA/Tx MIC (uM); type: functional; conditions: 336 h
[9] = test system: Mycobacterium tuberculosis; test: (§1) AntiMycobacterium tuberculosis activity day 10 in 7H9/2.5mM butyrate/pH6/0.1mM nitrite MIC90 (uM); type: functional; conditions: 240 h
[10] = test system: Mycobacterium tuberculosis; test: AntiMycobacterium tuberculosis activity day 21 MIC99 in 7H9/2.5mM butyrate/pH6/0.1mM nitrite MIC99 (uM); type: functional; conditions: 504 h
HepG2 [11] = test: HepG2 galactose CC50 (uM) Cytotoxicity; type: functional
[12] = test system: Mycobacterium tuberculosis; test: AntiMycobacterium tuberculosis activity 1-week 7H9/ADC/Tw MIC (uM); type: functional; conditions: 168 h
HepG2 [13] = test: HepG2 glucose CC50 (uM) Cytotoxicity; type: functional
[14] = test system: Mycobacterium tuberculosis; test: AntiMycobacterium tuberculosis activity 2-week GAST/Fe MIC (uM); type: functional; conditions: 336 h
[15] = test system: Mycobacterium tuberculosis; test: as §1; type: functional; conditions: 240 h; remark: listed apart in the source
[16] = test system: Mycobacterium tuberculosis; test: AntiMycobacterium tuberculosis activity 1-week 7H9/cholesterol/BSA/Tx MIC (uM); type: functional; conditions: 168 h
[17] = test system: Mycobacterium tuberculosis; test: AntiMycobacterium tuberculosis activity 1-week 7H9/glucose/BSA/Tx MIC (uM); type: functional; conditions: 168 h
Plasmodium falciparum [18] = test: Antimalarial activity: Gametocytes Plasmodium falciparum NF54 Gametocytes Stage V: inhibition at 10 uM (%); type: functional
Plasmodium falciparum [19] = test: Antimalarial activity: Asexual Blood Stage Plasmodium falciparum 3D7 IC50 (uM); type: functional, organism-based
[20] = HL60 CC50 (uM) Cytotoxicity; type: functional; conditions: HL-60
Plasmodium berghei = test: Antimalarial activity: Liver Stage Plasmodium berghei sporozoite Luciferase assay: inhibition at 10 uM (%); type: functional
Plasmodium falciparum [21] = test: Antimalarial activity: Asexual Blood Stage Plasmodium falciparum Dd2 IC50 (uM); type: functional, organism-based
HepG2 [22] = test: Cytotoxicity data HepG2 CC20 (uM); type: functional
HepG2 [23] = test: HepG2 inhibition at 10 uM (%) Cytotoxicity; type: functional; conditions: Homo sapiens
Plasmodium falciparum [24] = test: Antimalarial activity: Asexual Blood Stage Plasmodium falciparum W2 IC50 (uM); type: functional, organism-based

SMILES | MIC [1] [µM] | MIC [2] [µM] | MIC [3] [µM] | MIC [4] [µM] | MIC [5] [µM] | MIC [6] [µM] | MIC90 [7] [µM] | MIC [8] [µM] | MIC90 [9] [µM] | MIC [10] [µM] | CC50 (HepG2 [11]; Homo sapiens, HepG2) [µM] | MIC [12] [µM] | CC50 (HepG2 [13]; Homo sapiens, HepG2) [µM] | MIC [14] [µM] | MIC90 [15] [µM] | MIC [16] [µM] | MIC [17] [µM] | other results
CC(=O)N1CCc2cc3nc(C)cc(C)c3cc21 | 2.3 (≈ 0.553 µg/mL) | 4.7 (≈ 1.13 µg/mL) | > 50 | 2.3 (≈ 0.553 µg/mL) | > 50 | 0.15 (≈ 0.036 µg/mL) | 12.5 (≈ 3 µg/mL) | 25 (≈ 6.01 µg/mL) | > 50 | > 50 | > 50 | > 50 | > 50 | 0.39 (≈ 0.0937 µg/mL) | 6.25 (≈ 1.5 µg/mL) | 3.13 (≈ 0.752 µg/mL) | > 50 | 
COc1cc(Br)cc2cc(C(=O)Nc3cccc(C(F)(F)F)c3)c(=O)oc12 | 12.5 (≈ 5.53 µg/mL) | > 50 | 9.4 (≈ 4.16 µg/mL) | 2.3 (≈ 1.02 µg/mL) | > 50 | 1.2 (≈ 0.531 µg/mL) | 12.5 (≈ 5.53 µg/mL) | 9.4 (≈ 4.16 µg/mL) | 12.5 (≈ 5.53 µg/mL) | 12.5 (≈ 5.53 µg/mL) | > 50 | 50 (≈ 22.1 µg/mL) | > 50 | 4.7 (≈ 2.08 µg/mL) | 1.5 (≈ 0.663 µg/mL) | 6.25 (≈ 2.76 µg/mL) | 1.56 (≈ 0.69 µg/mL) | 
COc1cccc(NC(=O)c2c(NC(=O)c3cccnc3)sc3c2CCC3)c1 | > 50 | 12.5 (≈ 4.92 µg/mL) | 6.25 (≈ 2.46 µg/mL) | 9.4 (≈ 3.7 µg/mL) | 12.5 (≈ 4.92 µg/mL) | 9.4 (≈ 3.7 µg/mL) | > 50 | 50 (≈ 19.7 µg/mL) | > 50 | > 50 | > 50 | 12.5 (≈ 4.92 µg/mL) | > 50 | 12.5 (≈ 4.92 µg/mL) | 3.12 (≈ 1.23 µg/mL) | 12.5 (≈ 4.92 µg/mL) | 4.7 (≈ 1.85 µg/mL) | 
Cc1ccc2nc(C)c(-c3ccn(Cc4ccccc4)n3)n2c1 | 4.7 (≈ 1.42 µg/mL) | 19 (≈ 5.75 µg/mL) | ≥ 50 | 12.5 (≈ 3.78 µg/mL) | > 50 | 0.78 (≈ 0.236 µg/mL) | 50 (≈ 15.1 µg/mL) | 37 (≈ 11.2 µg/mL) | > 50 | > 50 | 36.1 | 50 (≈ 15.1 µg/mL) | 35.5 | 0.78 (≈ 0.236 µg/mL) | 6.25 (≈ 1.89 µg/mL) | 9.4 (≈ 2.84 µg/mL) | 50 (≈ 15.1 µg/mL) | CC50 (HepG2 [11]): 28.6 µM; CC50 (HepG2 [13]): > 50 µM
Clc1ccc(CCNc2cc(-c3ccccc3)nc3ncnn23)cc1 | 3.13 (≈ 1.09 µg/mL) | 6.25 (≈ 2.19 µg/mL) | > 50 | 4.7 (≈ 1.64 µg/mL) | > 50 | 0.3 (≈ 0.105 µg/mL) | 25 (≈ 8.75 µg/mL) | > 50 | > 50 | > 50 | > 50 | 50 (≈ 17.5 µg/mL) | > 50 | 1.2 (≈ 0.42 µg/mL) | 6.25 (≈ 2.19 µg/mL) | 3.13 (≈ 1.09 µg/mL) | 50 (≈ 17.5 µg/mL) | 
CS(=O)(=O)Cc1nc2ccccc2oc1=O | 6.25 (≈ 1.5 µg/mL) | 6.25 (≈ 1.5 µg/mL) | 9.4 (≈ 2.25 µg/mL) | 6.25 (≈ 1.5 µg/mL) | 9.4 (≈ 2.25 µg/mL) | 0.78 (≈ 0.187 µg/mL) | 3.12 (≈ 0.746 µg/mL) | 6.25 (≈ 1.5 µg/mL) | 12.5 (≈ 2.99 µg/mL) | 12.5 (≈ 2.99 µg/mL) | > 50 | 19 (≈ 4.55 µg/mL) | > 50 | 1.56 (≈ 0.373 µg/mL) | 3.12 (≈ 0.746 µg/mL) | 6.25 (≈ 1.5 µg/mL) | 9.4 (≈ 2.25 µg/mL) | 
CCOc1ccc(-c2nc(CNCCc3ccc(F)cc3)cs2)cc1 | 12.5 (≈ 4.46 µg/mL) | 25 (≈ 8.91 µg/mL) | 19 (≈ 6.77 µg/mL) | 12.5 (≈ 4.46 µg/mL) | 25 (≈ 8.91 µg/mL) | 19 (≈ 6.77 µg/mL) | 25 (≈ 8.91 µg/mL) | 12.5 (≈ 4.46 µg/mL) | 50 (≈ 17.8 µg/mL) | 50 (≈ 17.8 µg/mL) | 21.2 | 25 (≈ 8.91 µg/mL) | 33.3 | 12.5 (≈ 4.46 µg/mL) | 25 (≈ 8.91 µg/mL) | 9.4 (≈ 3.35 µg/mL) | 19 (≈ 6.77 µg/mL) | CC50 (HepG2 [11]): 24 µM; CC50 (HepG2 [13]): 35.4 µM
COc1cccc(-n2nnnc2S(=O)(=O)Cc2ccccc2)c1 | 50 (≈ 16.5 µg/mL) | 25 (≈ 8.26 µg/mL) | 37 (≈ 12.2 µg/mL) | 25 (≈ 8.26 µg/mL) | 37 (≈ 12.2 µg/mL) | 1.2 (≈ 0.396 µg/mL) | 6.25 (≈ 2.06 µg/mL) | 50 (≈ 16.5 µg/mL) | 6.25 (≈ 2.06 µg/mL) | 6.25 (≈ 2.06 µg/mL) | 28.5 | 25 (≈ 8.26 µg/mL) | 19.1 | 1.56 (≈ 0.515 µg/mL) | 3.12 (≈ 1.03 µg/mL) | 25 (≈ 8.26 µg/mL) | 12.5 (≈ 4.13 µg/mL) | CC50 (HepG2 [11]): 30.6 µM; CC50 (HepG2 [13]): 17.9 µM
O=C(N[C@H](Cc1ccccc1)C(=O)Nc1ccccc1N1CCOCC1)c1cccs1 | 3.13 (≈ 1.36 µg/mL) | 1.2 (≈ 0.523 µg/mL) | 4.7 (≈ 2.05 µg/mL) | 2.3 (≈ 1 µg/mL) | 1.2 (≈ 0.523 µg/mL) | 0.15 (≈ 0.0653 µg/mL) | 12.5 (≈ 5.44 µg/mL) | 2.3 (≈ 1 µg/mL) | > 50 | > 50 | > 50 | 1.2 (≈ 0.523 µg/mL) | > 50 | 0.15 (≈ 0.0653 µg/mL) | 6.25 (≈ 2.72 µg/mL) | 1.56 (≈ 0.679 µg/mL) | 3.13 (≈ 1.36 µg/mL) | 
O=C(Nc1cccc(-c2ccc(NCCCN3CCCC3)nc2)c1)c1ccccc1 |  |  |  |  |  |  |  |  |  |  |  |  |  |  |  |  |  | Inhibition (Plasmodium falciparum [18]): 7%; IC50 (Plasmodium falciparum [19]): 0.85 µM; CC50 [20]: > 50 µM; Inhibition (Plasmodium berghei): 25%; IC50 (Plasmodium falciparum [21]): 2.74 µM; CC20 (HepG2 [22]): 17.2 µM; inhibition at 10 µM (HepG2 [23]): 0%; IC50 (Plasmodium falciparum [24]): 1.66 µM
CN1CCN(c2nccc3[nH]c(-c4cccc(F)c4)cc23)CC1 |  |  |  |  |  |  |  |  |  |  |  |  |  |  |  |  |  | Inhibition (Plasmodium falciparum [18]): 29%; IC50 (Plasmodium falciparum [19]): 1.46 µM; CC50 [20]: > 12.5 µM; Inhibition (Plasmodium berghei): 40%; IC50 (Plasmodium falciparum [21]): 2.1 µM; CC20 (HepG2 [22]): 10.4 µM; inhibition at 10 µM (HepG2 [23]): 2%; IC50 (Plasmodium falciparum [24]): 2.63 µM
